Results as given in patent US10821116B2, “Administration of iloprost as aerosol bolus” (VECTURA GMBH, priority 2011, dated 2020).
“Also recorded” adds a separate entry of the source. Where two headings read alike, the source gives them in different places.

Key:
[1] = system: patients with pulmonary arterial hypertension; assay: Clinical pilot study of iloprost bolus inhalation (Example 3); type: in vivo, human
Description: A clinical pilot study to evaluate the safety and tolerability of nebulised iloprost administered by bolus inhalation according to the invention was conducted with 4 patients. Eligible were male and female patients with pulmonary arterial hypertension in the age from 18 to 70 years having a mean pulmonary arterial blood pressure (PAP) higher than 25 mm Hg, a pulmonary vascular resistance (PVR) higher than 240 dyn*s*cm^−5, a central venous pressure (CVP) higher than 3 mm Hg, and a pulmonary capillary wedge pressure (PCWP) lower than 12 mm Hg. Excluded were patients with a contraindication for cardiac catheterisation (such as coagulopathy, bleeding disorder, acute infection, severe cardiac dysrhythmia), pregnancy, systemic systolic blood pressure below 110 mm Hg, highly impaired ventricular function with cardiac index below 1.8 L/min*m^2, and known lack of pulmonary vascular reactivity. Patients were monitored by ECG, pulse oxymetry, and non-invasive blood pressure measurement. An intracardiac catheter was introduced into the distal pulmonary artery to measure PAP, CVP, PCWP, and cardiac output. Also measured were the heart rate, systemic arterial pressure (SAP), systemic vascular resistance (SVR), central arterial and venous blood gases. After the initial determination of all parameters the reactivity of the pulmonary vasculature to oxygen (2 to 4 L/min) and nitric oxide (20 ppm) was tested. Subsequently, patients inhaled a single dose of 2.5 μg of nebulised iloprost in two consecutive breaths, using the same inhalation system and iloprost composition as described in Example 1. Haemodynamic parameters and clinical condition of the patients were assessed before and up to 30 minutes after inhalation. In the absence of adverse effects, a second inhalation manoeuvre with 4 consecutive breaths corresponding to a dose 5 μg iloprost was performed, again followed by an observation period of at least 30 minutes.

[2] = cited from earlier work
[3] = system: patients suffering from pulmonary hypertension (PH); assay: Iloprost bolus inhalation in six further patients (Example 4); type: in vivo, human; details: bolus inhalation as in Example 3
Description: Six further patients suffering from pulmonary hypertension (PH) were treated with iloprost bolus inhalation as in Example 3.

[4] = bolus inhalation of 2.5 μg and 5 μg, versus slow inhalation of iloprost

With `CC#CCC(C)[C@H](O)/C=C/[C@@H]1[C@H]2C/C(=C/CCCC(=O)O)C[C@H]2C[C@H]1O` (stereo partly drawn) [iloprost, 5-{(E) -(1S,5S,6R,7R)-7-hydroxy-6[(E)-(3S, 4RS)-3-hydroxy-4-methyl-1-octen-6-inyl]-bi-cyclo[3.3.0]octan-3-ylidene}pentanoic acid] the “mean pulmonary arterial pressure (PAP) after bolus inhalation versus baseline, p” value ([1]; FIG. 1, n=4, Mann-Whitney rank-sum test) was under 0.05, the “mean systemic arterial pressure (SAP) after bolus inhalation versus baseline, significance” value ([1]; FIG. 3, n=4, Mann-Whitney rank-sum test) was “not significant” and the “systemic vascular resistance (SVR) after bolus inhalation versus baseline, significance” value ([1]; FIG. 4, n=4, Mann-Whitney rank-sum test) was “not significant”. For the same molecule, the “tolerability of the treatment” value ([1]; bolus inhalation of 2.5 μg (2 breaths) and 5 μg (4 breaths), 4 PAH patients) was “all patients tolerated the treatment well; also recorded: well-tolerated by patients”, the “systemic side effects (SAP and SVR changes)” value [1, 4] was “comparable to those observed after conventional iloprost treatment” and the “therapeutic pulmonary vascular effects (PAP and PVR changes)” value [1, 4] was “comparable to those observed after conventional iloprost treatment”. The solubility ([2]; acetone) was “soluble”, the solubility ([2]; aqueous buffer at pH 3) was “very slightly soluble” and the solubility ([2]; aqueous buffer at pH 5) was “very slightly soluble”. The solubility ([2]; aqueous buffer at pH 7) was “soluble”, the solubility ([2]; aqueous buffer pH 9) was “sparingly soluble” and the solubility ([2]; distilled water) was “very slightly soluble”. The solubility ([2]; ethanol) was “soluble”, the solubility ([2]; ethyl acetate) was “soluble” and the solubility ([2]; methanol) was “soluble”. For the same molecule, the aqueous solubility ([2]; water) was “rather poor”, the adverse effects ([3]; six PH patients) was “no adverse effects were observed other than the SAP and SVR changes which were mild” and the pulmonary vascular effects ([3]; six PH patients (PAH, iPAH, portopulmonary, CTEPH)) was “very comparable to those found in Example 3”.
